Reference: ChEMBL document CHEMBL3882724 (2013)

Legend:
[1] = target: T1, Steroid 17-alpha-hydroxylase/17,20 lyase (Homo sapiens, UniProt P05093); test: Inhibition of CYP17 in human testicular microsomes using 17alpha-hydroxypregnenolone as substrate assessed as decrease in DHEA levels after 90 mins by ELISA; design: species or system Testis
T1 sequence (P05093 whole entry): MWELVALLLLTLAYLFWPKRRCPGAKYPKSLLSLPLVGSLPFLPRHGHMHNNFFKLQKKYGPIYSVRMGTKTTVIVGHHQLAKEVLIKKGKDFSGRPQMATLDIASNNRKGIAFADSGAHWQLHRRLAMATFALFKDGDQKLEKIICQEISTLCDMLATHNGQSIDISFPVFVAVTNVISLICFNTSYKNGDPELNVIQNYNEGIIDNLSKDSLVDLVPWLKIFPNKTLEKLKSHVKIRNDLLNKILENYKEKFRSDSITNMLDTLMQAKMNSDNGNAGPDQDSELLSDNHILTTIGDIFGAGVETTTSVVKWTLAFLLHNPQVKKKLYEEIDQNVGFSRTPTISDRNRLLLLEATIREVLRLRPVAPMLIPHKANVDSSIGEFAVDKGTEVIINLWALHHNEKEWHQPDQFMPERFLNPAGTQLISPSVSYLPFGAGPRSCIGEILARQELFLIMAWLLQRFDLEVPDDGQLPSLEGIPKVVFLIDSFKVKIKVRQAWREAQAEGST

[2] = Half life in human liver microsomes at 1 uM by LC-MS/MS analysis
[3] = target: T2, CYP21 (steroid 21-hydroxylase) (Homo sapiens, UniProt P08686); test: Inhibition of human CYP21 transfected in HEK293 cells assessed as decrease in conversion of progesterone to 11-deoxycorticosterone preincubated for 5 hrs followed by progesterone addition measured after 20 hrs by ELISA; type: cell-based; design: concentration or dose not given beside the values; details: HEK293 cells transfected with human CYP21, probe progesterone
T2 sequence (P08686 whole entry): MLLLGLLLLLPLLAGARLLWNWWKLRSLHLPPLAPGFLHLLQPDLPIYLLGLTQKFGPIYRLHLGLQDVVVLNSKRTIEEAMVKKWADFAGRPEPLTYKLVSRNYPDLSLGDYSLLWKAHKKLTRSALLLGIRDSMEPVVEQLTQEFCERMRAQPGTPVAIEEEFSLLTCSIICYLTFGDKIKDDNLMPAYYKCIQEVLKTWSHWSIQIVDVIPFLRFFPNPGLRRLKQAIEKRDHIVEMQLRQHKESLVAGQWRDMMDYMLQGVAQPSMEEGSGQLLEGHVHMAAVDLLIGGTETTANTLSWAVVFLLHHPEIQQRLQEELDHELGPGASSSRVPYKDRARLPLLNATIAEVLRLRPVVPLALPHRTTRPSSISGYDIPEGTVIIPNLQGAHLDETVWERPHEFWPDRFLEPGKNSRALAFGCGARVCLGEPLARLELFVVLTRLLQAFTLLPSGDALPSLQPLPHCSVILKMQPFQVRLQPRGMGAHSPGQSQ

Structure (SMILES)	IC50 [1] [nM]	half-life at 1 µM [2] [min]	inhibition at 20 h [3] [%]
C[C@]12CC[C@H]3[C@@H](CC(F)[C@]4(O)C[C@@H](O)CC[C@]34C)[C@@H]1CC=C2c1cccnc1 (some centres undefined)	≤ 11	1 to 50	≥ 50
C[C@]12CC[C@H](O)CC1=CC[C@@H]1[C@@H]2CC[C@]2(C)C(c3cncc(Cl)c3)=CC[C@@H]12	≤ 11	1 to 50	≥ 50
CC1C[C@H]2[C@@H]3CC=C(c4cccnc4)[C@@]3(C)CC[C@@H]2[C@@]2(C)CC[C@H](O)CC12O (some centres undefined)	≤ 11		≥ 50
CC(=O)N[C@@H]1CC[C@@]2(C)C(CC[C@H]3C4=CC=C(c5cccnc5)[C@@]4(C)CC[C@@H]32)C1 (some centres undefined)		1 to 50	≥ 50
CC(=O)N[C@@H]1CC[C@@]2(C)C(=CC[C@@H]3[C@@H]2CC[C@]2(C)C(c4cncc(F)c4)=CC[C@@H]32)C1	≤ 11	1 to 50	≥ 50
COc1cncc(C2=CC[C@H]3[C@@H]4CC=C5C[C@H](NC(=O)C6CC6)CC[C@]5(C)[C@H]4CC[C@]23C)c1	≤ 11	1 to 50	≥ 50
CCCC(=O)N[C@@H]1CC[C@@]2(C)C(=CC[C@@H]3[C@@H]2CC[C@]2(C)C(c4cccnc4)=CC[C@@H]32)C1	≤ 11	1 to 50	≥ 50
C[C@]1(O)CC[C@@]2(C)C(CC[C@H]3C4=CC=C(c5cccnc5)[C@@]4(C)CC[C@@H]32)C1 (some centres undefined)	≤ 11	1 to 50	10 to 50
C[C@]12CC[C@H]3[C@@H](CC(F)C4(O)CC(=O)CC[C@]34C)[C@@H]1CC=C2c1cncc(F)c1 (some centres undefined)	≤ 11		≥ 50
C[C@]12CC[C@@H](NC(=O)C3CCC3)CC1=CC[C@@H]1[C@@H]2CC[C@]2(C)C(n3ccnc3)=CC[C@@H]12	≤ 11	1 to 50	≥ 50
C[C@]12CC[C@H]3[C@@H](CC=C4C[C@H](O)CC[C@@]43C)C1=CC=C2c1cccnc1	≤ 11	1 to 50	≥ 50
C[C@]12CC[C@H](O)CC1=CC[C@@H]1[C@@H]2CC[C@]2(C)C(c3cncc(N)c3)=CC[C@@H]12	≤ 11	≥ 50	≥ 50
C[C@]12CCC(=O)C(O)=C1C=C[C@@H]1[C@@H]2CC[C@]2(C)C(c3cccnc3)=CC[C@@H]12		1 to 50	≥ 50
C[C@]12CC[C@H]3[C@@H](CC(F)C4(O)CC(=O)CC[C@]34C)[C@@H]1CC=C2c1cccnc1 (some centres undefined)	≤ 11		≥ 50
CC[C@]1(O)CC[C@@]2(C)C(CC[C@@H]3[C@@H]2CC[C@]2(C)C(c4cccnc4)=CC[C@@H]32)C1 (some centres undefined)		1 to 50	10 to 50
C[C@]12CC[C@H](O)CC1=CC[C@@H]1[C@@H]2CC[C@]2(C)C(c3ccc(F)nc3)=CC[C@@H]12		1 to 50	10 to 50
C[C@]12CC[C@H]3[C@@H](CC(F)[C@@]4(O)C[C@@H](O)CC[C@]34C)[C@@H]1CC=C2c1cccnc1 (some centres undefined)	≤ 11	1 to 50	≥ 50
C[C@]12CC[C@H](O)CC1=CC[C@@H]1[C@@H]2CC[C@]2(C)C(c3cccnc3F)=CC[C@@H]12	≤ 11	1 to 50	≥ 50

Structure (SMILES)	IC50 [1] [nM]	half-life at 1 µM [2] [min]	inhibition at 20 h [3] [%]
C[C@]12CCC(=O)C=C1C(=O)C[C@@H]1[C@@H]2CC[C@]2(C)C(c3cncc(F)c3)=CC[C@@H]12	≤ 11		≥ 50
C[C@]12CCC(=O)C=C1C(F)C[C@@H]1[C@@H]2CC[C@]2(C)C(c3cncc(F)c3)=CC[C@@H]12 (some centres undefined)	≤ 11	1 to 50	≥ 50
C[C@]12CCNC(=O)C=C1C(F)C[C@@H]1[C@@H]2CC[C@]2(C)C(c3cccnc3)=CC[C@@H]12 (some centres undefined)	≤ 11	1 to 50	≥ 50
C[C@]12CC[C@@H](NC(=O)C3CCC3)CC1=CC[C@@H]1[C@@H]2CC[C@]2(C)C(c3cccnc3)=CC[C@@H]12	≤ 11		≥ 50
C[C@@]1(O)CC[C@@]2(C)C(=CC[C@@H]3[C@@H]2CC[C@]2(C)C(c4cncc(F)c4)=CC[C@@H]32)C1		≥ 50	≥ 50
Cc1cncc(C2=CC[C@H]3[C@@H]4CC=C5C[C@H](NC(=O)C6CC6)CC[C@]5(C)[C@H]4CC[C@]23C)c1	≤ 11		≥ 50
C[C@]12CC[C@H]3[C@@H](CC(O)C45CC4CC[C@]35C)C1=CC=C2c1cccnc1 (some centres undefined)	≤ 11	1 to 50	≥ 50
CC(=O)N[C@@H]1CC[C@@]2(C)C(=CC[C@@H]3[C@@H]2CC[C@]2(C)C(c4cncc(C(F)(F)F)c4)=CC[C@@H]32)C1		1 to 50	10 to 50
CC(=O)N[C@@H]1CC[C@@]2(C)C(=CC[C@@H]3[C@@H]2CC[C@]2(C)C(c4cncc(C(F)F)c4)=CC[C@@H]32)C1	≤ 11	1 to 50	≥ 50
C[C@]12CC[C@H](O)CC1=CC[C@@H]1[C@@H]2CC[C@]2(C)C(c3cncc(F)c3)=CC[C@@H]12	≤ 11	≥ 50	≥ 50
C[C@]1(O)CC[C@@]2(C)C(CC[C@@H]3[C@@H]2CC[C@]2(C)C(c4cccnc4)=CC[C@@H]32)C1 (some centres undefined)	≤ 11	1 to 50	≥ 50
CCNC(=O)N[C@@H]1CC[C@@]2(C)C(=CC[C@@H]3[C@@H]2CC[C@]2(C)C(c4cccnc4)=CC[C@@H]32)C1		1 to 50	≥ 50
COc1cncc(C2=CC[C@H]3[C@@H]4CCC5C[C@@H](NC(C)=O)CC[C@]5(C)[C@H]4CC[C@]23C)c1 (some centres undefined)		1 to 50	≥ 50
CC1(C)C2=CC[C@H]3C4=CC=C(c5cccnc5)[C@@]4(C)CC[C@@H]3[C@@]2(C)CCC1O (some centres undefined)		1 to 50	10 to 50
COC(=O)N[C@H]1CC[C@@]2(C)C(CC[C@H]3C4CC=C(c5cccnc5)[C@@]4(C)CC[C@@H]32)C1 (single isomer, unassigned)		1 to 50	≥ 50
C[C@]12CC[C@@H](NC(=O)C3CC3)CC1CC[C@H]1C3CC=C(c4cccnc4)[C@@]3(C)CC[C@@H]12 (single isomer, unassigned)	≤ 11	1 to 50	≥ 50
CC(=O)NC1CC[C@@]2(C)C(CC[C@@H]3[C@@H]2CC[C@]2(C)C(c4cccnc4)=CC[C@@H]32)C1 (single isomer, unassigned)	≤ 11	1 to 50	≥ 50
